Reference: the kinase profiling compilation of Christmann-Franck et al. (2016)
Several values for one entry are separate records, joined by “and”; a condition that tells them apart may be missing. Identical values can stand only once.

Legend:
Test in all cases: Caliper, Mobility shift assay off-chip
RPS6KA1 KD1 KD2 (human) = RPS6KA1 KD1 KD2 (human) (UniProt Q15418)
SRC (human) = SRC (human) (UniProt P12931)
CHEK1 (human) = CHEK1 (human) (UniProt O14757)
CSK (human) = CSK (human) (UniProt P41240)
KDR (human) = KDR (human) (UniProt P35968)
EPHA4 (human) = EPHA4 (human) (UniProt P54764)
BRSK2 (human) = BRSK2 (human) (UniProt Q8IWQ3)
Chain of BRSK2 (human) (Q8IWQ3 whole entry, looked up): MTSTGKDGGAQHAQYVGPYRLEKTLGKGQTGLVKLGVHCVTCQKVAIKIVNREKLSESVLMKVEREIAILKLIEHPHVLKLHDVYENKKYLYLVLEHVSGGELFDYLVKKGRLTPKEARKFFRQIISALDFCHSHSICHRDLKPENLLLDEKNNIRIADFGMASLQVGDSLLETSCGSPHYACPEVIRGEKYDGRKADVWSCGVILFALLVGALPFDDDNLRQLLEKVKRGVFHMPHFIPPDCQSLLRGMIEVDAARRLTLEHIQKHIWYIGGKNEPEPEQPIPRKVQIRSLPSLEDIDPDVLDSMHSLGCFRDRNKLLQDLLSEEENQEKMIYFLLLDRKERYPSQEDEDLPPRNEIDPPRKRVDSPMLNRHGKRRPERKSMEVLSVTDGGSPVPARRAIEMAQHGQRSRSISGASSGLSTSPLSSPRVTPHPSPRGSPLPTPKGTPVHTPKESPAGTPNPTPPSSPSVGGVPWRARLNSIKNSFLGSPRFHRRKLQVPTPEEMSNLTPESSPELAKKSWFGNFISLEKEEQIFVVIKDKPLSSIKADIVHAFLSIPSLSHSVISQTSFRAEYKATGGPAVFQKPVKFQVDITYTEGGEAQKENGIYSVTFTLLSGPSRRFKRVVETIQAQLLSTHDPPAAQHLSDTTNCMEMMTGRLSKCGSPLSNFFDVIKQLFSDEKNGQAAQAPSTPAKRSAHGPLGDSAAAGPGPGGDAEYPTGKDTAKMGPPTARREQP

MAPKAPK2 (human) = MAPKAPK2 (human) (UniProt P49137)
BTK (human) = BTK (human) (UniProt Q06187)
FGFR1 (human) = FGFR1 (human) (UniProt P11362)
CDK2 CCNA2 (human) = CDK2 CCNA2 (human) (UniProt P24941+P20248)
EGFR (human) = EGFR (human) (UniProt P00533)
RAF1 (human) = RAF1 (human) (UniProt P04049)
NEK2 (human) = NEK2 (human) (UniProt P51955)
Chain of NEK2 (human) (P51955 whole entry, looked up): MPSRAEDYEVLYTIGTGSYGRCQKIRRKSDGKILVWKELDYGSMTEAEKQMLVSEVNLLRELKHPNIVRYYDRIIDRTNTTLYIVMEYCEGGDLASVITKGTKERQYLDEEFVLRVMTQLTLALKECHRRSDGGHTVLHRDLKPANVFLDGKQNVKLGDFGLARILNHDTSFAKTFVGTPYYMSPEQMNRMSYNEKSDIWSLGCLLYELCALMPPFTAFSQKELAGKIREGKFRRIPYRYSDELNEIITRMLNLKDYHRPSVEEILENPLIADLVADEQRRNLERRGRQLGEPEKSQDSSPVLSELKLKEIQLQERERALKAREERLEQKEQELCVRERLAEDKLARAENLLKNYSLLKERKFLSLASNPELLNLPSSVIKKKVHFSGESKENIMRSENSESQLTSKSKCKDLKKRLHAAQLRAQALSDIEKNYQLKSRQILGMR

PLK3 (human) = PLK3 (human) (UniProt Q9H4B4)
MAPK11 (human) = MAPK11 (human) (UniProt Q15759)
IGF1R (human) = IGF1R (human) (UniProt P08069)
ROCK1 (human) = ROCK1 (human) (UniProt Q13464)
IKBKB (human) = IKBKB (human) (UniProt O14920)
RPS6KA5 KD1 KD2 (human) = RPS6KA5 KD1 KD2 (human) (UniProt O75582)
ALK (human) = ALK (human) (UniProt Q9UM73)
MAPK12 (human) = MAPK12 (human) (UniProt P53778)
NEK6 (human) = NEK6 (human) (UniProt Q9HC98)
AKT1 (human) = AKT1 (human) (UniProt P31749)
MAPK14 (human) = MAPK14 (human) (UniProt Q16539)
Chain of MAPK14 (human) (Q16539 whole entry, looked up): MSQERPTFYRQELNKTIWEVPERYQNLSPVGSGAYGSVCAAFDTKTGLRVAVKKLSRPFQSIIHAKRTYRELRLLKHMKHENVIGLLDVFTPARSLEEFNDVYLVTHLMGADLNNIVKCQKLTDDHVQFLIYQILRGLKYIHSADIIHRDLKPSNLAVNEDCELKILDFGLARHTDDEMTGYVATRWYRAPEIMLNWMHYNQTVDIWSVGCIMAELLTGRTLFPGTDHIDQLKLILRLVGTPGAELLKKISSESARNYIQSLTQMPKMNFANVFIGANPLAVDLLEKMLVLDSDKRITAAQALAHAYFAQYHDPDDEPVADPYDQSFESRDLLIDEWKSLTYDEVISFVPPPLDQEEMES

EPHA2 (human) = EPHA2 (human) (UniProt P29317)
Chain of EPHA2 (human) (P29317 whole entry, looked up): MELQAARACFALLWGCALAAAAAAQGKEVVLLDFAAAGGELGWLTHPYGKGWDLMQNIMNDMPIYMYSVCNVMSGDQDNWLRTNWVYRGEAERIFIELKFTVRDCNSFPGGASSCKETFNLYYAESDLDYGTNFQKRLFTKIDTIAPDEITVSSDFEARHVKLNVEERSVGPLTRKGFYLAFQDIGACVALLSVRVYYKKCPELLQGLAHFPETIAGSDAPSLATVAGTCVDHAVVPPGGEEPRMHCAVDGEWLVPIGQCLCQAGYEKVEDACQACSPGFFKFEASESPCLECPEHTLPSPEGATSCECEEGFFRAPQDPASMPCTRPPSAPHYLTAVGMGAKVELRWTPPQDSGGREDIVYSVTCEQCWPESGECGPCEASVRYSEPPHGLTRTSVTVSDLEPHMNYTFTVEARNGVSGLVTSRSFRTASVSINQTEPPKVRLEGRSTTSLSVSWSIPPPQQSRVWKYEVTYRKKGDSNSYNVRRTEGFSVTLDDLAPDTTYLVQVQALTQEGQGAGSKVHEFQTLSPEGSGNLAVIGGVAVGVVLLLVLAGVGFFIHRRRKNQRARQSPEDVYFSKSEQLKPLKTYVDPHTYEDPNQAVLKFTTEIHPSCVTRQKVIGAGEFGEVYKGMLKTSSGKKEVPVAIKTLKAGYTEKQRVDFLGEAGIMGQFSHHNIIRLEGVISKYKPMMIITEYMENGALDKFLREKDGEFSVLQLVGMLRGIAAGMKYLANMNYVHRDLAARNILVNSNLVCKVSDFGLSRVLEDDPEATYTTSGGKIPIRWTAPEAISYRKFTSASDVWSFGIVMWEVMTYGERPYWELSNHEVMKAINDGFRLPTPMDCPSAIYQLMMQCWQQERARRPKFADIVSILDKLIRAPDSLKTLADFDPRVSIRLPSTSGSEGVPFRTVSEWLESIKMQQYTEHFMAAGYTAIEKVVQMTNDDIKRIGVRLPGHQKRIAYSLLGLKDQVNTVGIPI

TEK (human) = TEK (human) (UniProt Q02763)
Chain of TEK (human) (Q02763 whole entry, looked up): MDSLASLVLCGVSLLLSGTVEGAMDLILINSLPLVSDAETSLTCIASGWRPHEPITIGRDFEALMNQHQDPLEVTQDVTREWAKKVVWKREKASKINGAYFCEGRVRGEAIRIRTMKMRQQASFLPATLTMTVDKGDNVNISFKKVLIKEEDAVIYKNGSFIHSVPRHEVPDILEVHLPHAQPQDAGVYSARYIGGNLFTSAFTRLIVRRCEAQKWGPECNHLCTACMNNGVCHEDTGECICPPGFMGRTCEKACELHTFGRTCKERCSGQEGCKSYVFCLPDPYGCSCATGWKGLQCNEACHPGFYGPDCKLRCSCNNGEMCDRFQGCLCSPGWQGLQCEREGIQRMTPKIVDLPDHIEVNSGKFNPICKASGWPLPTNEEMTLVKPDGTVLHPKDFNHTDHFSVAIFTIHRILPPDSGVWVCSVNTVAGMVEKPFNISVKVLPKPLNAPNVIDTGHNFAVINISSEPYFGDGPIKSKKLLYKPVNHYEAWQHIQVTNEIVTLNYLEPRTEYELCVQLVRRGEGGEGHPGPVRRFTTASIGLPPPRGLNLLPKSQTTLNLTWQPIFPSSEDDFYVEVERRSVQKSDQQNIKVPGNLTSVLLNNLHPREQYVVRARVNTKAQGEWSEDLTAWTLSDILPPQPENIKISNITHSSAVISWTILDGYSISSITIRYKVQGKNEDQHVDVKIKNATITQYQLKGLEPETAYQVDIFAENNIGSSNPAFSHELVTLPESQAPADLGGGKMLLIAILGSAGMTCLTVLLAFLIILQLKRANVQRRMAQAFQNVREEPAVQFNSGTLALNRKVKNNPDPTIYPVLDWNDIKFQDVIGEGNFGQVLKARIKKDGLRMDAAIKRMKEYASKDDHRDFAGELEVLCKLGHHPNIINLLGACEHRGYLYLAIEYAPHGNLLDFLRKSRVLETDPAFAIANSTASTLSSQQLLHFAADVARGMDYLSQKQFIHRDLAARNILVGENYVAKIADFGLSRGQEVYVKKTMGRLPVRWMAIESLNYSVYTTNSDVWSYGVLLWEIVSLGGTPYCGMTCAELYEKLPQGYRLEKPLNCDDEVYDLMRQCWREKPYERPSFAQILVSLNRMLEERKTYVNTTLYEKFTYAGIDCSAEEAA

ZAP70 (human) = ZAP70 (human) (UniProt P43403)
FGFR3 (human) = FGFR3 (human) (UniProt P22607)
MAPK13 (human) = MAPK13 (human) (UniProt O15264)
MAP3K7 (human) = MAP3K7 (human) (UniProt O43318)
RIPK2 (human) = RIPK2 (human) (UniProt O43353)
PRKCI (human) = PRKCI (human) (UniProt P41743)
RPS6KB1 (human) = RPS6KB1 (human) (UniProt P23443)
PRKCA (human) = PRKCA (human) (UniProt P17252)
PRKCG (human) = PRKCG (human) (UniProt P05129)
PIM2 (human) = PIM2 (human) (UniProt Q9P1W9)
PIM1 (human) = PIM1 (human) (UniProt P11309)
KIT (human) = KIT (human) (UniProt P10721)
MAPKAPK5 (human) = MAPKAPK5 (human) (UniProt Q8IW41)
PAK4 (human) = PAK4 (human) (UniProt O96013)

Chain of CHEK1 (human) (O14757 whole entry, looked up): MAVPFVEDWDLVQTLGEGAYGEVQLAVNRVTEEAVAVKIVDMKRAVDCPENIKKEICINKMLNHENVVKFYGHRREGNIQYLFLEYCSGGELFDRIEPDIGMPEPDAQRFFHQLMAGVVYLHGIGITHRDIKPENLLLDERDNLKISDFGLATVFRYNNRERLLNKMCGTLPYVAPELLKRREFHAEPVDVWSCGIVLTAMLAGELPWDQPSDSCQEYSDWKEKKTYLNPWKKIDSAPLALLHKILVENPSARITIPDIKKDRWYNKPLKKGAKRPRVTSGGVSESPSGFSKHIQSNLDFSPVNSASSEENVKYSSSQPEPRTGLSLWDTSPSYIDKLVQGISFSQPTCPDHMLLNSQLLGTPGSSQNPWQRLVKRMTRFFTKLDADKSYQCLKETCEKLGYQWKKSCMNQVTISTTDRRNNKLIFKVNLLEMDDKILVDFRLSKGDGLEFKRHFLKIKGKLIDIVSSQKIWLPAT

`O=C(N[C@@H](COc1ccc2[nH]c(=O)[nH]c2c1)c1ccccc1)c1cccn(Cc2ccc(F)c(F)c2)c1=O` was tested, and the residual activity (RPS6KA1 KD1 KD2 (human); compound 10.0 µM) was 107%, the residual activity (SRC (human); compound 10.0 µM) was 94% and 101% and the residual activity (CHEK1 (human); compound 10.0 µM) was 105%. It also gave a residual activity (CSK (human); compound 10.0 µM) of 114%, a residual activity (KDR (human); compound 10.0 µM) of 101% and a residual activity (EPHA4 (human); compound 10.0 µM) of 101%. The residual activity (BRSK2 (human); compound 10.0 µM) was 111%, the residual activity (MAPKAPK2 (human); compound 10.0 µM) was 98% and the residual activity (BTK (human); compound 10.0 µM) was 107%. For the same molecule, the residual activity (FGFR1 (human); compound 10.0 µM) was 86%, the residual activity (CDK2 CCNA2 (human); compound 10.0 µM) was 99% and the residual activity (EGFR (human); compound 10.0 µM) was 89%. For the same molecule, the residual activity (RAF1 (human); compound 10.0 µM) was 109%, the residual activity (NEK2 (human); compound 10.0 µM) was 94% and the residual activity (PLK3 (human); compound 10.0 µM) was 96%. For the same molecule, the residual activity (MAPK11 (human); compound 10.0 µM) was 100%, the residual activity (IGF1R (human); compound 10.0 µM) was 116% and the residual activity (ROCK1 (human); compound 10.0 µM) was 97%. The residual activity (IKBKB (human); compound 10.0 µM) was 100%, the residual activity (RPS6KA5 KD1 KD2 (human); compound 10.0 µM) was 109% and the residual activity (ALK (human); compound 10.0 µM) was 116%. It also gave a residual activity (MAPK12 (human); compound 10.0 µM) of 115%, a residual activity (NEK6 (human); compound 10.0 µM) of 99% and a residual activity (AKT1 (human); compound 10.0 µM) of 107%. It also gave a residual activity (MAPK14 (human); compound 10.0 µM) of 107%, a residual activity (EPHA2 (human); compound 10.0 µM) of 127% and a residual activity (TEK (human); compound 10.0 µM) of 105%. It also gave a residual activity (ZAP70 (human); compound 10.0 µM) of 100%, a residual activity (FGFR3 (human); compound 10.0 µM) of 122% and a residual activity (MAPK13 (human); compound 10.0 µM) of 114%. The residual activity (MAP3K7 (human); compound 10.0 µM) was 101%, the residual activity (RIPK2 (human); compound 10.0 µM) was 101% and the residual activity (PRKCI (human); compound 10.0 µM) was 97%. For the same molecule, the residual activity (RPS6KB1 (human); compound 10.0 µM) was 104%, the residual activity (PRKCA (human); compound 10.0 µM) was 98% and the residual activity (PRKCG (human); compound 10.0 µM) was 104%. For the same molecule, the residual activity (PIM2 (human); compound 10.0 µM) was 100%, the residual activity (PIM1 (human); compound 10.0 µM) was 104% and the residual activity (KIT (human); compound 10.0 µM) was 107%. The residual activity (MAPKAPK5 (human); compound 10.0 µM) was 98% and the residual activity (PAK4 (human); compound 10.0 µM) was 105%.

In the case of `Cc1n[nH]c2c1c(=O)n(CCCN)c1ccc(Cl)cc21`, the residual activity (RPS6KA1 KD1 KD2 (human); compound 1.0 µM) was 2%, the residual activity (SRC (human); compound 1.0 µM) was 104% and the residual activity (CHEK1 (human); compound 1.0 µM) was 5%. For the same molecule, the residual activity (CSK (human); compound 1.0 µM) was 110%, the residual activity (KDR (human); compound 1.0 µM) was 95% and the residual activity (EPHA4 (human); compound 1.0 µM) was 104%. For the same molecule, the residual activity (BRSK2 (human); compound 1.0 µM) was 18%, the residual activity (MAPKAPK2 (human); compound 1.0 µM) was 88% and the residual activity (BTK (human); compound 1.0 µM) was 95%. The residual activity (FGFR1 (human); compound 1.0 µM) was 43%, the residual activity (CDK2 CCNA2 (human); compound 1.0 µM) was 104% and the residual activity (EGFR (human); compound 1.0 µM) was 110%. It also gave a residual activity (RAF1 (human); compound 1.0 µM) of 106%, a residual activity (NEK2 (human); compound 1.0 µM) of 118% and a residual activity (PLK3 (human); compound 1.0 µM) of 95%. The residual activity (MAPK11 (human); compound 1.0 µM) was 99%, the residual activity (IGF1R (human); compound 1.0 µM) was 145% and the residual activity (ROCK1 (human); compound 1.0 µM) was 66%. For the same molecule, the residual activity (IKBKB (human); compound 1.0 µM) was 104%, the residual activity (RPS6KA5 KD1 KD2 (human); compound 1.0 µM) was 68% and the residual activity (ALK (human); compound 1.0 µM) was 116%. It also gave a residual activity (MAPK12 (human); compound 1.0 µM) of 107%, a residual activity (NEK6 (human); compound 1.0 µM) of 101% and a residual activity (AKT1 (human); compound 1.0 µM) of 102%. The residual activity (MAPK14 (human); compound 1.0 µM) was 94%, the residual activity (EPHA2 (human); compound 1.0 µM) was 107% and the residual activity (TEK (human); compound 1.0 µM) was 106%. The residual activity (ZAP70 (human); compound 1.0 µM) was 114%, the residual activity (FGFR3 (human); compound 1.0 µM) was 102% and the residual activity (MAPK13 (human); compound 1.0 µM) was 97%. It also gave a residual activity (MAP3K7 (human); compound 1.0 µM) of 56%, a residual activity (RIPK2 (human); compound 1.0 µM) of 93% and a residual activity (PRKCI (human); compound 1.0 µM) of 114%. It also gave a residual activity (RPS6KB1 (human); compound 1.0 µM) of 76%, a residual activity (PRKCA (human); compound 1.0 µM) of 107% and a residual activity (PRKCG (human); compound 1.0 µM) of 75%. The residual activity (PIM2 (human); compound 1.0 µM) was 92%, the residual activity (PIM1 (human); compound 1.0 µM) was 97% and the residual activity (KIT (human); compound 1.0 µM) was 112%. For the same molecule, the residual activity (MAPKAPK5 (human); compound 1.0 µM) was 80% and the residual activity (PAK4 (human); compound 1.0 µM) was 69%.

For `O=C(NCCCNc1nc(Nc2cccc(NC(=O)N3CCCC3)c2)ncc1I)c1cccs1`, the residual activity (RPS6KA1 KD1 KD2 (human); compound 1.0 µM) was 83%, the residual activity (SRC (human); compound 1.0 µM) was 86% and the residual activity (CHEK1 (human); compound 1.0 µM) was 54%. It also gave a residual activity (CSK (human); compound 1.0 µM) of 107%, a residual activity (KDR (human); compound 1.0 µM) of 106% and a residual activity (EPHA4 (human); compound 1.0 µM) of 100%. For the same molecule, the residual activity (BRSK2 (human); compound 1.0 µM) was 81%, the residual activity (MAPKAPK2 (human); compound 1.0 µM) was 96% and the residual activity (BTK (human); compound 1.0 µM) was 94%. The residual activity (FGFR1 (human); compound 1.0 µM) was 48%, the residual activity (CDK2 CCNA2 (human); compound 1.0 µM) was 99% and the residual activity (EGFR (human); compound 1.0 µM) was 109%. The residual activity (RAF1 (human); compound 1.0 µM) was 94%, the residual activity (NEK2 (human); compound 1.0 µM) was 93% and the residual activity (PLK3 (human); compound 1.0 µM) was 111%. The residual activity (MAPK11 (human); compound 1.0 µM) was 85%, the residual activity (IGF1R (human); compound 1.0 µM) was 103% and the residual activity (ROCK1 (human); compound 1.0 µM) was 96%. The residual activity (IKBKB (human); compound 1.0 µM) was 105%, the residual activity (RPS6KA5 KD1 KD2 (human); compound 1.0 µM) was 93% and the residual activity (ALK (human); compound 1.0 µM) was 100%. The residual activity (MAPK12 (human); compound 1.0 µM) was 98%, the residual activity (NEK6 (human); compound 1.0 µM) was 114% and the residual activity (AKT1 (human); compound 1.0 µM) was 103%. It also gave a residual activity (MAPK14 (human); compound 1.0 µM) of 108%, a residual activity (EPHA2 (human); compound 1.0 µM) of 127% and a residual activity (TEK (human); compound 1.0 µM) of 95%. For the same molecule, the residual activity (ZAP70 (human); compound 1.0 µM) was 120%, the residual activity (FGFR3 (human); compound 1.0 µM) was 88% and the residual activity (MAPK13 (human); compound 1.0 µM) was 115%. The residual activity (MAP3K7 (human); compound 1.0 µM) was 32%, the residual activity (RIPK2 (human); compound 1.0 µM) was 111% and the residual activity (PRKCI (human); compound 1.0 µM) was 121%. For the same molecule, the residual activity (RPS6KB1 (human); compound 1.0 µM) was 85%, the residual activity (PRKCA (human); compound 1.0 µM) was 98% and the residual activity (PRKCG (human); compound 1.0 µM) was 86%. It also gave a residual activity (PIM2 (human); compound 1.0 µM) of 91%, a residual activity (PIM1 (human); compound 1.0 µM) of 103% and a residual activity (KIT (human); compound 1.0 µM) of 100%. The residual activity (MAPKAPK5 (human); compound 1.0 µM) was 78% and the residual activity (PAK4 (human); compound 1.0 µM) was 99%.
